Results taken from US20100197765A1, “METHOD FOR PROMOTING THE EXPRESSION OF P53, AND P53 EXPRESSION PROMOTER FOR USE IN THE METHOD” (THE UNIVERSITY OF TOKUSHIMA, priority 2007, published 2010).

What was measured:
p53 = p53 mRNA (quantitative RT-PCR) and protein in HCT116 clones stably expressing vegf IresRNA, cisplatin treated; type: cell-based, human; conditions: mock HCT116 cells, cisplatin 5 μg/mL, 6 h, 12 h vs 0 h
Source text: Full length cDNAs of vegf IresRNA having a sequence from base 600 to base 879 in 5′ UTR of vegf mRNA of SEQ ID NO. 1 were inserted into plasmid vectors pcDNA3.1 (Invitrogen). Thus, vegf IresRNA expression vectors (pcDNA-vegf Ires) were produced. These vegf IresRNA expression vectors (pcDNA-vegf Ires) were transfected into HCT116 (parent cells, wild-type p53), and two types of cell clones that stably overexpress vegf IresRNA were selected with an antibiotic G418. The thus-established two types of vegf IresRNA-expressing cells are hereinafter referred to as vegf Ires-#1 and vegf Ires-#2. Furthermore, as a mock treatment, plasmid vectors pcDNA3.1 lacking the above-described insert were transfected into HCT116 cells, and the transfect cell clones were selected with the antibiotic G418. These cell clones were hereinafter referred to as a mock. Then, expression of vegf IresRNA in these cell clones was examined by Northern blotting.
Subsequently, each of these vegf IresRNA-stably expressing cell strains was treated in the presence or absence of 5 μg/mL of an anticancer agent cisplatinin for a predetermined time (0, 6, 8, 12, 24 h). Thereafter, the expression level of p53 mRNA was analyzed by quantitative RT-PCR, and the expression level of p53 protein was analyzed by Western immunoblotting. […]

HCT116 cells = assay: p53 mRNA, vegf IresRNA and vegf mRNA in HCT116 cells exposed to genotoxic stress (Northern); type: cell-based, human
Procedure: HCT116 cells (parent cells) were exposed to genotoxic stress that upregulates the expression of p53 mRNA. […] Also, HCT116 cells were exposed to UV-B for 1 minute. Then, after placing them under non-exposed conditions for a predetermined time (6, 12 hours), the expressions were examined in the same manner as in the above.

Structure (SMILES): N.N.[Cl][Pt][Cl] [cisplatin]
- expressions of p53 mRNA and p53 protein (p53): significant increase
- expression of the p53 mRNA (HCT116 cells; HCT116, 5-FU 80 μmol/L, MMC 6 μg/ml or cisplatin 5 μg/ml, 0, 6, 12 hours): increased
- expression of the vegf IresRNA (HCT116 cells; HCT116, cisplatin 5 μg/ml): decreased
